Values quoted from earlier work as cited in patent US8980870B2, “Solid telmisartan pharmaceutical formulations” (Boehringer Ingelheim International GmbH, priority 2002, dated 2015).

Conditions: physiological pH range of the gastrointestinal tract, between pH 1 to 7; both polymorphic forms A and B

CCCc1nc2c(C)cc(-c3nc4ccccc4n3C)cc2n1Cc1ccc(-c2ccccc2C(=O)O)cc1 [telmisartan, 4′-[2-n-propyl-4-methyl-6-(1-methylbenzimidazol-2-yl)benzimidazol-1-ylmethyl]biphenyl-2-carboxylic acid]
solubility in aqueous systems: very poor solubility
